Experimental findings from patent US10543212B2, “Substituted amines for treating cardiac diseases” (Cardurion Pharmaceuticals, LLC, priority 2017, dated 2020) are described below.

Read-outs that look alike come from different tables or passages of the source.

In assay [1] the target is T1, Full-length, GST-tagged, human CaMKIIδ (Homo sapiens, UniProt Q13557).
T1 construct: Full-Length, Glutathione-S-Transferase(GST)-Tagged, Human CaMKIIδ was purchased from Carna Biosciences; purchased Carna Biosciences 02-111
As to the kind of experiment: CaMKIIδ binding assay (TR-FRET with BODIPY-labeled probe ligand). Put shortly:
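TR-FRET probe-displacement binding: 0.5 nM GST-CaMKIIδ with 10 μg/mL calmodulin, 1 mM CaCl2, 0.21 nM Tb-anti-GST Ab and 300 nM BODIPY probe in HEPES pH 7.6 buffer. Eight-point 4-fold dilutions, 1 hr at room temperature. IC50 from logistic fit; 100% inhibition defined by 3 μM parent compound.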
A general note: In TR-FRET formats the signal depends on donor and acceptor labels being close together.

The test system of assay [2] is phosphorylation of CaMKII-specific site of phospholamban (Thr17, PLN) in the heart. As to the kind of experiment: In vivo cardiac CaMKII inhibition (P-PLN Thr17 in rat left ventricle, Western blotting). The settings on record: po, male SD rat left ventricle, vs vehicle-treated group, read-out: Reduction rate of P-PLN; for inhibition in vivo at 30 mg/kg: 30 mg/kg p.o. As to the method:
To evaluate potency of test compounds to inhibit cardiac CaMKII kinase in vivo, phosphorylation levels of CaMKII-specific sites of phospholamban (Thr17, PLN) were measured in the heart of rats administered with test compounds at various doses.
Test compounds were suspended in 0.5% [w/v] methylcellulose/water solution and administered (10 or 30 mg/kg) to male CD (SD) IGS rat (6-8 weeks old, n=4) by the p.o. route (5 mL/kg). At 2-4 hours after the administration, rats were sacrificed and the hearts were harvested. After washing the isolated hearts with ice-cold saline, connective tissues were removed on ice, and the isolated left ventricle were frozen into liquid nitrogen gas and stored at −80° C.
The left ventricle samples were homogenized in RIPA-buffer containing phosphatase inhibitors and protease inhibitors. Samples were analyzed by Western blotting using anti-P-PLN (Thr17, Santa Cruz Biotechnology, sc-17024-R) antibody. The band intensities were quantified using an imaging system and were normalized relative to the vehicle-treated group.
On the technique in general: Immunoblotting shows a protein as a band on a membrane.

The target of assay [3] is T2, Human full-length CaMKIIδ (Homo sapiens, UniProt Q13557).
T2 construct: Human full-length CaMKIIδ (Cat #02-111) was obtained from Carna Biosciences; GST; purchased Carna Biosciences 02-111
As to the kind of experiment: Human CaMKII enzyme inhibition assay (radiometric kinase assay). It counts as biochemical. The note with it: 3 μM compound, 500 nM ATP, 0.5 nM CaMKIIδ; for inhibition at 3 µM: read-out: CaMKIIδ inhibitory activity (%) at 3 μM. The method, boiled down:
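Radiometric [γ-33P]ATP assay: 0.5 nM CaMKIIδ and 0.1 μM autophosphorylation peptide in HEPES pH 7.5 with Ca2+/calmodulin, with 500 nM ATP. Enzyme was preincubated with compound for 5 min, then reacted 60 min at RT. Value is % inhibition at 3 μM compound, relative to no-enzyme and no-inhibitor controls.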

Setting [4] is: Table 2, CaMKIIδ binding assay, activity given as class A/B/C.
Setting [5] is: Table 2, activity class for CaMKIIδ.
The mark [6] stands for this setting: CaMKIIδ binding assay, activity class per Table 2.

The term IC50 denotes the concentration that gives 50% inhibition.

T1 sequence (Q13557 1-478 isoform Q13557-12): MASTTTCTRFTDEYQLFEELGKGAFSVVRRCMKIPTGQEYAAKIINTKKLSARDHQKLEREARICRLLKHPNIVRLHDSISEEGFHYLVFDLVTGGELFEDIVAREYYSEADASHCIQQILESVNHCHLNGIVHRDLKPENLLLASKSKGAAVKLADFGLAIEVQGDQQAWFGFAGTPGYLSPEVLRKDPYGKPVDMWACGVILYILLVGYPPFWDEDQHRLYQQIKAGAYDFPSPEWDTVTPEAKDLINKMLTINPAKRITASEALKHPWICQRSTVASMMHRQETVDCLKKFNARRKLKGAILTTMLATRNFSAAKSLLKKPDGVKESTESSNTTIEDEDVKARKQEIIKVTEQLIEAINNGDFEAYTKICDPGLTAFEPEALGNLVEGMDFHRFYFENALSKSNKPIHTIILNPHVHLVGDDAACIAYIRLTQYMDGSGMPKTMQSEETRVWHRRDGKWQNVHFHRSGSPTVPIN

With `CC(C)c1nn([C@H]2CC[C@H](N3CCOCC3)CC2)cc1Nc1ncc(-c2ccc(Cl)c(O[C@@H](C)Cn3cnnn3)c2)cn1` [Example 843, 5-(3-(((S)-1-(1H-tetrazol-1-yl)propan-2-yl)oxy)-4-chlorophenyl)-N-(3-isopropyl-1-(trans-4-morpholinocyclohexyl)-1H-pyrazol-4-yl)pyrimidin-2-amine], the half-inhibitory concentration (IC50) in assay [1] (setting [4]) was less than 10 nM. For the same compound, the inhibition in vivo at 10 mg/kg in assay [2] (10 mg/kg p.o., 4 hr after administration) was more than 50%. Compound `C[C@@H](Cn1cnnn1)Oc1cc(-c2cnc(Nc3cn([C@H]4CC[C@H](N5CCOCC5)CC4)nc3OCC(F)F)nc2)ccc1Cl` [Example 806, 5-(3-(((S)-1-(1H-tetrazol-1-yl)propan-2-yl)oxy)-4-chlorophenyl)-N-(3-(2,2-difluoroethoxy)-1-(trans-4-morpholinocyclohexyl)-1H-pyrazol-4-yl)pyrimidin-2-amine] gave a half-inhibitory concentration (IC50) in assay [1] (setting [4]) of less than 10 nM. Also, the inhibition in vivo at 30 mg/kg in assay [2] (2 hr after administration) is more than 50%. `C[C@@H](Cn1cnnn1)Oc1cc(-c2cnc(Nc3cn(C4CC5(C4)CN(C4CCOCC4)C5)nc3OCC(F)(F)F)nc2)ccc1Cl` [Example 795, (S)-5-(3-((1-(1H-tetrazol-1-yl)propan-2-yl)oxy)-4-chlorophenyl)-N-(1-(2-(tetrahydro-2H-pyran-4-yl)-2-azaspiro[3.3]heptan-6-yl)-3-(2,2,2-trifluoroethoxy)-1H-pyrazol-4-yl)pyrimidin-2-amine] returned a 50% inhibitory concentration (IC50) in assay [1] (setting [4]) of less than 10 nM. Besides, in assay [2] (2 hr after administration), the inhibition in vivo at 30 mg/kg is more than 50%. In the case of `C[C@@H](Cn1cnnn1)Oc1cc(-c2cnc(Nc3cn([C@H]4CC[C@H](N5CCOCC5)CC4)nc3C(F)(F)F)nc2)ccc1Cl` [Example 695, 5-(3-(((S)-1-(1H-tetrazol-1-yl)propan-2-yl)oxy)-4-chlorophenyl)-N-(1-(trans-4-morpholinocyclohexyl)-3-(trifluoromethyl)-1H-pyrazol-4-yl)pyrimidin-2-amine], the IC50 in assay [1] (setting [5]) is less than 10 nM. Besides, in assay [2] (2 hr after administration), the inhibition in vivo at 30 mg/kg is more than 50%. On to `CC(=O)OC(C)(C)CN1CC2(CC(n3cc(Nc4ncc(-c5ccc(Cl)c(O[C@@H](C)Cn6cnnn6)c5)cn4)c(OCC(F)(F)F)n3)C2)C1` [Example 951, 1-[6-(4-{[5-(4-chloro-3-{[(2S)-1-(1H-tetrazol-1-yl)propan-2-yl]oxy}phenyl)pyrimidin-2-yl]amino}-3-(2,2,2-trifluoroethoxy)-1H-pyrazol-1-yl)-2-azaspiro[3.3]heptan-2-yl]-2-methylpropan-2-yl acetate], for which the IC50 in assay [1] (setting [6]) was less than 10 nM. In addition, in assay [2] (4 hr after administration), the inhibition in vivo at 30 mg/kg is more than 50%. As to `C[C@@H](Cn1cnnn1)Oc1cc(-c2cnc(Nc3cn([C@H]4CC[C@H](N5CCOCC5)CC4)nc3OCC(F)(F)F)nc2)ccc1Cl` [Example 772, 5-(3-(((S)-1-(1H-tetrazol-1-yl)propan-2-yl)oxy)-4-chlorophenyl)-N-(1-(trans-4-morpholinocyclohexyl)-3-(2,2,2-trifluoroethoxy)-1H-pyrazol-4-yl)pyrimidin-2-amine], the IC50 in assay [1] (setting [4]) was less than 10 nM. Further, the inhibition in vivo at 30 mg/kg in assay [2] (2 hr after administration) is more than 50%.

`C[C@@H](Cn1cnnn1)Oc1cc(-c2cnc(Nc3cn(C4CC5(C4)CN(CC(C)(C)O)C5)nc3OCC(F)(F)F)nc2)ccc1Cl` [Example 946, (S)-1-(6-(4-((5-(3-((1-(1H-tetrazol-1-yl)propan-2-yl)oxy)-4-chlorophenyl)pyrimidin-2-yl)amino)-3-(2,2,2-trifluoroethoxy)-1H-pyrazol-1-yl)-2-azaspiro[3.3]heptan-2-yl)-2-methylpropan-2-ol]: the IC50 in assay [1] (setting [6]) was less than 10 nM. In assay [2] (4 hr after administration), the inhibition in vivo at 30 mg/kg was more than 50%. The compound `C[C@@H](Cn1cnnn1)Oc1cc(-c2cnc(Nc3cn(C4CC5(C4)CN(C4CCOCC4)C5)nc3C(F)(F)F)nc2)ccc1Cl` [Example 831, (S)-5-(3-((1-(1H-tetrazol-1-yl)propan-2-yl)oxy)-4-chlorophenyl)-N-(1-(2-(tetrahydro-2H-pyran-4-yl)-2-azaspiro[3.3]heptan-6-yl)-3-(trifluoromethyl)-1H-pyrazol-4-yl)pyrimidin-2-amine] registered a half-inhibitory concentration (IC50) in assay [1] (setting [4]) of less than 10 nM. Further, in assay [2] (4 hr after administration), the inhibition in vivo at 30 mg/kg was more than 50%. Turning to `COc1ccccc1Nc1ncc(-c2ccc(C#N)c(O[C@@H](C)Cn3cnnn3)c2)cn1` [Example 16, 4-(2-((2-methoxy-phenyl)amino)pyrimidin-5-yl)-2-(((2S)-1-(1H-tetrazol-1-yl)propan-2-yl)oxy)benzonitrile], in assay [3], the inhibition at 3 µM worked out at 99%. Same read-out and setting: next, `COc1cc(N2CCC(N3CCOCC3)CC2)ncc1Nc1ncc(-c2ccc(C#N)c(O[C@@H](C)Cn3cnnn3)c2)cn1` [Example 57, 4-(2-((4-methoxy-6-(4-(morpholin-4-yl)piperidin-1-yl)pyridin-3-yl)amino)pyrimidin-5-yl)-2-(((2S)-1-(1H-tetrazol-1-yl)propan-2-yl)oxy)benzonitrile]: 99%.

Turning to `COc1cc(N2CCC(N3CCOCC3)CC2)ccc1Nc1ncc(-c2ccc(C#N)c(O[C@@H](C)Cn3cnnn3)c2)cn1` [Example 9, 4-(2-((2-methoxy-4-(4-(morpholin-4-yl)piperidin-1-yl)phenyl)amino)pyrimidin-5-yl)-2-(((2S)-1-(1H-tetrazol-1-yl)propan-2-yl)oxy)benzonitrile], in assay [3], the “CaMKIIδ inhibitory activity (%) at 3 μM” value was 99%.

Regarding `CC(C)n1cc(Nc2ncc(-c3ccc(C#N)c(O[C@@H](C)Cn4cnnn4)c3)cn2)cn1` [Example 374, 4-(2-((1-isopropyl-1H-pyrazol-4-yl)amino)pyrimidin-5-yl)-2-(((2S)-1-(1H-tetrazol-1-yl)propan-2-yl)oxy)benzonitrile], in assay [3], the inhibition at 3 µM was 97%.

With `COc1cc(C2CCN(C3COC3)CC2)ccc1Nc1ncc(-c2ccc(C#N)c(O[C@@H](C)Cn3cnnn3)c2)cn1` [Example 75, 4-(2-((2-methoxy-4-(1-(oxetan-3-yl)piperidin-4-yl)phenyl)amino)pyrimidin-5-yl)-2-(((2S)-1-(1H-tetrazol-1-yl)propan-2-yl)oxy)benzonitrile], in assay [3], the inhibition at 3 µM came out at 98%. Still for that read-out and setting: next, `COc1nc(N2CCC(N3CCOCC3)CC2)ccc1Nc1ncc(-c2ccc(Cl)c(O[C@@H](C)Cn3cnnn3)c2)cn1` [Example 212, 5-(4-chloro-3-(((2S)-1-(1H-tetrazol-1-yl)propan-2-yl)oxy)phenyl)-N-(2-methoxy-6-(4-(morpholin-4-yl)piperidin-1-yl)pyridin-3-yl)pyrimidin-2-amine]: 99%.

In turn, `C[C@@H](Cn1cnnn1)Oc1cc(-c2cnc(Nc3cn(C4CCN(C5CCOCC5)CC4)nc3OCC(F)(F)F)nc2)ccc1Cl` [Example 677, (S)-5-(3-((1-(1H-tetrazol-1-yl)propan-2-yl)oxy)-4-chlorophenyl)-N-(1-(1-(tetrahydro-2H-pyran-4-yl)piperidin-4-yl)-3-(2,2,2-trifluoroethoxy)-1H-pyrazol-4-yl)pyrimidin-2-amine] registered an IC50 in assay [1] (setting [5]) of less than 10 nM. For the same compound, the inhibition in vivo at 30 mg/kg in assay [2] (2 hr after administration) is more than 50%. Turning to `COc1cc(C(=O)N2CCOCC2)ccc1Nc1ncc(-c2ccc(C#N)c(O[C@@H](C)Cn3cncn3)c2)cn1` [Example 72, 4-(2-((2-methoxy-4-(morpholin-4-ylcar-bonyl)phenyl)amino)pyrimidin-5-yl)-2-(((2S)-1-(1H-1,2,4-triazol-1-yl)propan-2-yl)oxy)benzonitrile], in assay [3], the inhibition at 3 µM amounted to 97%. For `C[C@@H](Cn1cnnn1)Oc1cc(-c2cnc(Nc3cn(C4CCN(C5CCOCC5)CC4)nc3C(F)(F)F)nc2)ccc1Cl` [Example 484, (S)-5-(3-((1-(1H-tetrazol-1-yl)propan-2-yl)oxy)-4-chlorophenyl)-N-(1-(1-(tetrahydro-2H-pyran-4-yl)piperidin-4-yl)-3-(trifluoromethyl)-1H-pyrazol-4-yl)pyrimidin-2-amine], in assay [1] (CaMKIIδ binding assay, results of Table 2), the concentration for half-maximal inhibition (IC50) is less than 10 nM. The inhibition in vivo at 30 mg/kg in assay [2] (2 hr after administration) was more than 50%.
